# Data published in patent US20260083768A1, “INFLAMMASOME INHIBITION FOR NEUROPROTECTION” (University of Virginia Patent Foundation, priority 2022, published 2026).
# Key:
# photoreceptors = assay: TUNEL staining of retinal outer nuclear layer in mouse RRD model (photoreceptor death); type: in vivo, mice
# Protocol: (§1) RRD was induced in mice via subretinal injection (SRI) of 1% carboxymethylcellulose (CMC). To simulate outcomes following the clinical management of RRD, optimal conditions were determined in which SRI of CMC induced spontaneous retinal reattachment (SRR) over 10 days (RRD/SRR). K-9, 3TC, or AZT was administered via intraperitoneal (IP) injection. Inflammasome activation was monitored by cleaved caspase-1 abundance, and photoreceptor death was assessed by TUNEL staining. Retinal function was assessed by full-field scotopic electroretinography (ERG).
# (§2) A persistent RRD model was established by subretinal injection (SRI) of 3 μl 1% carboxymethyl cellulose (CMC; Refresh Liquigel, Allergan, Irvine, CA, USA). The model of RRD/SRR was achieved by SRI of 3 μl 0.03% CMC. SRIs were performed as previously described (23) using a 35-gauge needle (Ito Co., Fuji, Japan).
# (§3) NRTIs and K-9 were delivered via intraperitoneal (IP) injection in equimolar amounts. Lamivudine (3TC, 50 mg/kg) or azidothymidine (AZT, 60 mg/kg) was injected twice daily (SelleckChem, Houston, TX, USA). Kamuvudine K-9 (3-methyl-3TC) was synthesized as previously described (21) and administered either at a low dose (K-9L; 90 mg/kg daily) or a high dose (K-9H; 60 mg/kg twice daily, equimolar to NRTI doses). IP injection of phosphate buffered saline (PBS) was used as control. […]
# [1] = system: retinal electrical function; assay: Full-field scotopic ERG in RRD/SRR mouse model; type: in vivo, mice
# Protocol: FIGS. 7A-7D. K-9 improves ERG functional outcomes in RRD/SRR model (A) Experiment overview: the RRD/SRR model was established day 0 (SRI of 3 μl 0.03% CMC). K-9 (60 mg/kg) or PBS was administered days 0-10 twice daily IP. Scotopic ERG was measured at baseline, as well as days 7, 11, and 14. In 7A-D, n=10-12 per group. (B) ERG waveforms representative of the K-9 and PBS groups, at baseline and day 14. (C) Amplitudes of a- and b-waves over time in the K-9 (red) and PBS (blue) groups at the stimulation intensity of 1.0 log cd sec/m2. […] Data (7C-D) is represented as mean±SEM. (D) AA from baseline for PBS (blue) and K-9 (red) groups.
# RRD was induced in mice via subretinal injection (SRI) of 1% carboxymethylcellulose (CMC). To simulate outcomes following the clinical management of RRD, optimal conditions were determined in which SRI of CMC induced spontaneous retinal reattachment (SRR) over 10 days (RRD/SRR). […] Inflammasome activation was monitored by cleaved caspase-1 abundance, and photoreceptor death was assessed by TUNEL staining. Retinal function was assessed by full-field scotopic electroretinography (ERG). […]
# ERG was recorded at baseline, as well as days 7, 11, and 14 following SRI of CMC. Mice (n=6) were dark adapted overnight, and then ERG was measured using Ganzfeld ERG (Phoenix Laboratories). […] Responses were recorded to white-flash stimuli ranging from −1.7 to 1.0 log cd s/m2. […]
# caspase-1 = assay: Retinal cleaved caspase-1 immunoblot in mouse RRD model (inflammasome activation); type: in vivo, mice
# Protocol: as §1, §2, §3
# retinal function = assay: Scotopic ERG in rd10 mouse model of retinal neuronal degeneration; type: in vivo; conditions: rd10 mice; 60 mg/kg twice daily IP, P15 until P28; vs vehicle (PBS)
# Protocol: FIG. 8. K-9 protects retinal function. Starting at postnatal day 15 (P15) until P28, rd10 mice were treated with K-9 at 60 mg/kg twice daily via intraperitoneal injection or with an equal volume of vehicle (PBS). Retinal function was monitored with scotopic electroretinography (ERG).
# K-9 protects retinal function in the rd10 mouse model of retinal neuronal degeneration. rd10 is an autosomal missense R560C mutation in the Pde6b gene, which results in a recessively inherited retinal neuronal degeneration (FIG. 8). Starting at postnatal day 15 (P15) until P28, rd10 mice were treated with K-9 at 60 mg/kg twice daily via intraperitoneal injection or with an equal volume of vehicle (PBS). Retinal function was monitored with scotopic electroretinography (ERG).
smiles,measurement,setting,value
"CCOCC1OC(n2ccc(N(CC)CC)nc2=O)CS1 (stereo not shown) [K-9, 4-(diethylamino)-1-[2-(ethoxymethyl)-1,3-oxathiolan-5-yl]-1,2-dihydropyrimidin-2-one]",degree of photoreceptor protection,"photoreceptors; day 3 RRD model, TUNEL, IP, mean±SEM, K-9 versus NRTIs P<0.05",56%±7%
same,number of TUNEL+ cells in the ONL of the retina,"photoreceptors; three days after inducing RRD, IP treatment, compared with PBS-treatment",dose-dependent reduction
same,retinal electrical function (ERG a- and b-wave amplitudes),"[1]; RRD/SRR model (SRI 3 μl 0.03% CMC), K-9 60 mg/kg twice daily IP days 0-10, ERG days 7-14, vs PBS",preserves retinal electrical function
same,ERG parameters following retinal reattachment,"[1]; RRD/SRR model, K-9 administered during the period of retinal detachment",improvement
same,degree of suppression of caspase-1 activation,"caspase-1; day 3 RRD model, IP, mean±SEM, K-9 versus NRTIs P<0.05",84%±1%
same,retinal cleaved caspase-1,"caspase-1; three days after inducing RRD (SRI 3 μl 1% CMC), IP treatment, compared with PBS-treated mice",dose-dependent and complete reduction
same,ERG a-wave and b-wave,retinal function,completed protection
